# In paper PMC4464647, “ANO1 (TMEM16A) in pancreatic ductal adenocarcinoma (PDAC)” (Pflugers Archiv, 2014):
# d = 2'-deoxy (DNA)
# Experiments:
# Capan-1 cells = test: BrdU incorporation cell proliferation assay; type: cell-based, human; conditions: Capan-1, inhibitor 20 μM, 24 h
# Protocol: (§1) To assess cell proliferation and apoptosis, cells were plated in duplicates on a 96-well plate and incubated in 100 μl of the cell line appropriate media described above. Cells were transfected with siRNA soon after complete attachment (approx. 3 h after seeding). Cells were treated with vehicle, 20 μM gemcitabine, 20 μM T16Ainh-A01, or 10 μM free NS3728 (see below) after culture in a humidified 37 °C and 5 % CO2 incubator overnight. BrdU incorporation was measured using Cell Proliferation ELISA, BrdU (chemiluminescent) (Roche Diagnostics A/S, Denmark) following the manufacturer’s instructions. Caspases 3, 6, and 7 activation was evaluated using Homogeneous Caspases Assay (fluorimetric) (Roche Diagnostics A/S, Denmark).
# (§2) Fig. 7 VRAC, but not ANO1, regulates cellular proliferation. a Summary of BrdU incorporation in HPDE, Capan-1, AsPC-1, and BxPC-3 cells after various treatments as indicated. Cells were transfected shortly after complete attachment (approx. 3 h) and BrdU incorporation was assessed 36 h after transfection. To investigate effect of inhibitors, cells were incubated for 24 h with respective inhibitor. Values shown are relative to appropriate control. Data shown represents mean ± s.e.m. of n = 4–6 individual experiments. **p ≤ 0.01 and ***p ≤ 0.001 when compared with control
# BxPC-3 cells = test: BrdU incorporation cell proliferation assay; type: cell-based, human; conditions: BxPC-3, inhibitor 20 μM, 24 h
# Protocol: as §1, §2
# [1] = tested on: HPDE, Capan-1, AsPC-1, and BxPC-3 cells; test: BrdU incorporation cell proliferation assay, all tested cell lines; type: cell-based, human
# Protocol: as §1, §2
# [2] = tested on: bronchial epithelial cells; design: method as in Scudieri et al. [39]; conditions: ref Scudieri et al. [39], cited from earlier work
# CFPAC-1 = tested on: CFPAC-1; design: method as in Mazzone et al. [23]; conditions: CFPAC-1, 10 μM, ref Mazzone et al. [23]; cited from earlier work
# HPDE cells = test: BrdU incorporation cell proliferation assay; type: cell-based, human; conditions: inhibitor 20 μM, 24 h
# Protocol: as §1, §2
# ANO1 = test: Western blot of ANO1 protein expression after siRNA knockdown; type: cell-based, human; conditions: 36 h after transfection, β-actin loading control
# Protocol: DharmaFECT 1 Transfection Reagent (Thermo Scientific, Germany) was used for transfection of siRNA targeting ANO1 (50 nM final concentration) or scrambled (5 nM final concentration). Cells were transfected according to the manufacturer’s protocol. Predesigned siRNA oligo was obtained from Sigma-Aldrich (5′-[…][dT][dT]-3′, 5′-[…][dT][dT]-3′) or negative control (Silencer® Negative Control No. 1 siRNA; Ambion, Denmark). ANO1 overexpressing HEK293 cells were generated by adding 0.5 μg/ml mANO1-GFP vector to DMEM containing 1 % v/v penicillin and streptomycin. The mixture was vortexed and incubated for 5 min, and 20 μg/ml polyethylenimine (PEI) was added. The mixture was vortexed again and added drop-wise to 60 % confluent HEK293 cells in DMEM medium containing 5 % v/v FBS and 1 % v/v penicillin and streptomycin after 10 min incubation at room temperature. Media was changed after 4 h incubation at 37 °C and 5 % CO2.
# Protein was isolated from cells 36 h after transfection with siRNA targeting ANO1, in a lysis buffer containing (in mM): 10 Tris–HCl, 10 EDTA, 1 % sodium dodecyl sulfate (SDS), 0.5 % sodium deoxycholate, and 1 % complete protease inhibitor mixture (Roche, Denmark), pH 7.4, and was separated by 7 % SDS-PAGE. Protein was subsequently transferred to nitrocellulose membrane (Novex, Denmark). […]
# Fig. 3 ANO1 is the major contributor of CaCC currents in PDAC cells and is sensitive to Cl^− channel inhibitors and siRNA. Whole-cell patch-clamp recordings with 1 μM Ca^2+ in pipette solution. a Representative current traces measured in Capan-1 cells upon exposure to different inhibitors. b Quantification of CaCC currents at +67 mV recorded with inhibitors compared to currents in presence of DMSO; currents of siANO1 cells were compared to those of MOCK transfected cells. c Steady-state I–V relationships of cells transfected with either scrambled siRNA (MOCK) or siRNA targeting ANO1. d Densitometric quantification of Western blot analysis of siRNA knockdown. β-Actin was used as a loading control. […]
# AsPC-1 cells = test: Scratch wound healing assay; type: cell-based, human; conditions: AsPC-1, siRNA 50 nM vs scrambled 5 nM, 5 μM aphidicolin
# Protocol: Cells were seeded into Essen ImageLock 96-well plates. Cells were transfected with siRNA shortly after cells completely attached at 80 % confluency. […] The wound confluence was obtained and analyzed by using the IncuCyte phase-contrast imaging and scratch wound assay system and software (Essen Bioscience, USA). Wound closure was assessed by comparing the mean relative wound density (%RWD) according to the following formula: % RWD = 100 × w(t) − w(0)/[…]. Here, w(t) is the density of wounded area at time t and c(t) is the density of cell region at time t. Each experiment was conducted in triplicates.
# We therefore assessed a possible contribution of ANO1 in PDAC cell migration using wound healing assay. […] The experiments were conducted in the presence of 5 μM aphidicolin to rule out a possible effect on cell proliferation. […] AsPC-1 cells were therefore not well suited for studies of lateral motility.
# Fig. 9 ANO1 supports migration of PDAC cells. Wound healing assay is shown as relative wound density (density of wounded area relative to confluency of cell region) over time. Aphidicolin (5 μM) was added to stop proliferation. a AsPC-1 cells and b BxPC-3 cells after transfection with either scrambled siRNA (5 nM) or siRNA targeting ANO1 (50 nM). c BxPC-3 cells in presence of different inhibitors. Data shown represents mean ± s.e.m. of n = 4 experiments; each run was carried out in triplicates
Compound,proliferation (BrdU incorporation) (Capan-1 cells),proliferation (BrdU incorporation) (BxPC-3 cells),"proliferation (BrdU incorporation) ([1]; ANO1-overexpressing cancer cells, 20 μM, 24 h)",inhibition of Ca2+-activated Cl− secretion ([2]; 10 μM),UTP-induced Cl− secretion in short-circuit current recordings ([2]; cells prior exposed to 10 μM),proliferation (CFPAC-1),proliferation (BrdU incorporation) (HPDE cells),"proliferation (BrdU incorporation) ([1]; siRNA 50 nM vs mock 5 nM, 36 h after transfection, any of the tested cell lines)",ANO1 protein expression decreased to (ANO1; AsPC-1 cells),ANO1 protein expression decreased to (ANO1; BxPC-3 cells),ANO1 protein expression decreased to (ANO1; Capan-1 cells),migration (relative wound density over time) (AsPC-1 cells)
"CC(C)(C)C1CCc2c(sc(NC(=O)c3ccco3)c2C(=O)O)C1 (stereo not shown) [CaCCinh-A01, 6-(1,1-dimethylethyl)-2-[(2-furanylcarbonyl)amino]-4,5,6,7-tetrahydrobenzo[b]thiophene-3-carboxylic acid]",decreased proliferation in Capan-1 slightly,larger effect,–,–,–,–,–,–,–,–,–,–
"CCc1c(C)nc(SCC(=O)Nc2nc(-c3ccc(OC)cc3)cs2)[nH]c1=O [T16Ainh-A01, 2-[(5-Ethyl-1,6-dihydro-4-methyl-6-oxo-2-pyrimidinyl)thio]-N-[4-(4-methoxyphenyl)-2-thiazolyl]acetamide]",–,"slight, but non-significant decrease of proliferation",none of the ANO1-overexpressing cancer cells showed any significant decrease in proliferation,relatively weak inhibition,significantly attenuated,decrease in proliferation,showed inhibited proliferation,–,–,–,–,–
"siRNA targeting ANO1: Predesigned siRNA oligo from Sigma-Aldrich, 5′-CCUUCAACGUCAGUGACUU[dT][dT]-3′, 5′-AAGUCACUGACGUUGAAGG[dT][dT]-3′ (RNA, 3' dTdT, backbone not given here)",–,–,–,–,–,–,–,did not cause any significant change in proliferation,54 ± 14%,20 ± 7%,37 ± 8%,significantly decreased migration
